This note sets out measurements from ChEMBL document CHEMBL5241085, “Pyrazolotriazines: Biological activities, synthetic strategies and recent developments” (Eur J Med Chem, 2021).

pEC50, pIC50: −log10 of the molar value. ≈ marks a conversion by molar mass, not a printed value.

Usually pIC50 stands for the negative decadic logarithm of the IC50, by convention in mol/L. The residual activity is the share of the control activity or signal that is left under treatment. Broadly, the inhibition is how much of the control response was suppressed. By EC50 is commonly meant the concentration giving half of the maximal effect. One may read the half-life as the time needed for the level to fall by half in the phase considered. As usually defined, the pEC50 is the negative decadic logarithm of the EC50, by convention in mol/L. The bioavailability is the share of a dose that reaches the circulation, judged against a reference dose that is usually intravenous.

Data set [1] deals with T1, Amine oxidase [flavin-containing] B (Homo sapiens, UniProt P27338).
T1 sequence (P27338 whole entry): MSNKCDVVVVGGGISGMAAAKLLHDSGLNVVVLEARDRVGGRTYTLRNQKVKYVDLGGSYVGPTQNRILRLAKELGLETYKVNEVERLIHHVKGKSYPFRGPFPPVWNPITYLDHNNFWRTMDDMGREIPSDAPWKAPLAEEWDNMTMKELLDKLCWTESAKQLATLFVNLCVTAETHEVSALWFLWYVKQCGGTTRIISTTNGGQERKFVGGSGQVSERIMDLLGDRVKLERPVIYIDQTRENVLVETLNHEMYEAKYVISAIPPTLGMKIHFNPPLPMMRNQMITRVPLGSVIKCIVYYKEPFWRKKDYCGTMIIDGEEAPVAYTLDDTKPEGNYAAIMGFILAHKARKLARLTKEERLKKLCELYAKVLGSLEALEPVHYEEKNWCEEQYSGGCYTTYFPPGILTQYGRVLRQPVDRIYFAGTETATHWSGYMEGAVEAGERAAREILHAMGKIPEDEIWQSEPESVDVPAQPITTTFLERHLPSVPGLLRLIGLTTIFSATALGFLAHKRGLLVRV
The data set is described as follows: Inhibition of MAO-B (unknown origin).

Data set [2] in a line: Inhibition of urease (unknown origin) measured after 20 mins.
In data set [3] the test system is A549. The data set is described as follows: Antiproliferative activity against human A549 cells. It is filed as functional, cell-based.
In another data set the test system is Entamoeba histolytica. The data set is described as follows: Antiparasitic activity against Entamoeba histolytica HM1:1MSS assessed as parasitic growth inhibition by microdilution method. In kind it is functional, organism-based. In general terms: In broth dilution the organism is exposed to a series of concentrations in liquid medium.
For data set [4], the target named is T2, Tyrosinase (Homo sapiens) (UniProt P14679).
T2 sequence (whole entry): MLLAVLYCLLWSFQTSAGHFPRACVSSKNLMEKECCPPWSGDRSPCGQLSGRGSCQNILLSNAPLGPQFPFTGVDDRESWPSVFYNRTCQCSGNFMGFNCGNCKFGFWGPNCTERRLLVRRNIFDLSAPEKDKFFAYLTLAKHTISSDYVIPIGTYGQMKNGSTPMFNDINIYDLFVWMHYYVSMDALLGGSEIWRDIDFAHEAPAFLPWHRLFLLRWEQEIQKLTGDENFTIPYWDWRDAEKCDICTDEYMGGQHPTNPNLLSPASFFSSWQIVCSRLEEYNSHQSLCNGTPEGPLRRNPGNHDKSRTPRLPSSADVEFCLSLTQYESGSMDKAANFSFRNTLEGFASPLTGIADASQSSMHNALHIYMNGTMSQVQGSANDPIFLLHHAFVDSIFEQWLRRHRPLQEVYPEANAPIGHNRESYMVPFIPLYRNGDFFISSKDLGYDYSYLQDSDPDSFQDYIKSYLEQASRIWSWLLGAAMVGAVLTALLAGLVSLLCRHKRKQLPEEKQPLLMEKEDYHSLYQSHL
The data set is described as follows: Inhibition of tyrosinase (unknown origin) assessed as enzyme residual activity at 0.07 mg/ml relative to control; values are per cent of control.

Data set [5] has as its target T2, Tyrosinase (Homo sapiens). Briefly: Inhibition of tyrosinase (unknown origin) relative to control. The conditions noted are these: concentration not given here.
Data set [6] has as its target T3, Dipeptidyl peptidase 4 (Homo sapiens, UniProt P27487). Briefly: Inhibition of human DPP4.
In data set [7] the target is T4, Calcitonin gene-related peptide 1 (Homo sapiens, UniProt P06881).
T4 sequence (P06881 whole entry): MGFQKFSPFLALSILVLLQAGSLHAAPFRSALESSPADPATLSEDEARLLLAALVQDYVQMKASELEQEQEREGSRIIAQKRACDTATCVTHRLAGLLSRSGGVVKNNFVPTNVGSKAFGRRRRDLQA
The data set is described as follows: Inhibition of CGRP (unknown origin).

In data set [8] the target is T3, Dipeptidyl peptidase 4. Briefly: Inhibition of DPP4 (unknown origin).
A further data set concerns the target T5, Tyrosinase (Homo sapiens, UniProt P14679).
T5 sequence (P14679 whole entry): T2 sequence (whole entry)
Briefly: Inhibition of tyrosinase (unknown origin) incubated for 20 mins.

Data set [9] has as its target T6, Glucose-dependent insulinotropic receptor (Homo sapiens, UniProt Q8TDV5).
T6 sequence (Q8TDV5 whole entry): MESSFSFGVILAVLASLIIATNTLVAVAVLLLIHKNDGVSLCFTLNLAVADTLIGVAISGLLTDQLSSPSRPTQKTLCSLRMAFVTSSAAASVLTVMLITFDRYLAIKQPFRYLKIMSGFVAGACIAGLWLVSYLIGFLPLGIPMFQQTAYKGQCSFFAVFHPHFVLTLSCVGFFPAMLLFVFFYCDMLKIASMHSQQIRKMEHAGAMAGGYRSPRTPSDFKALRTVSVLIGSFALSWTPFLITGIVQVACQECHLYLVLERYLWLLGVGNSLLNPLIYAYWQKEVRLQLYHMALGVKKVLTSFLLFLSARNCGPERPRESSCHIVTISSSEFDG
Briefly: Inhibition of GPR119 (unknown origin) at 10 uM.

Data set [10] can be described thus: Antiproliferative activity against human NCI cells assessed as reduction in cell viability at 100 uM by MTT assay. It is filed as functional. As to conditions: read-out: GI.
In data set [11] the target is T7, Cyclin-dependent kinase 2 (Homo sapiens, UniProt P24941). The data set is described as follows: Inhibition of CDK2 (unknown origin). The conditions noted are these: concentration not given here.
Data set [12] deals with T7, Cyclin-dependent kinase 2. Briefly: Inhibition of human CDK2 at 10 uM.
In data set [13] the target is T8, Purine nucleoside phosphorylase (Homo sapiens, UniProt P00491).
T8 sequence (P00491 whole entry): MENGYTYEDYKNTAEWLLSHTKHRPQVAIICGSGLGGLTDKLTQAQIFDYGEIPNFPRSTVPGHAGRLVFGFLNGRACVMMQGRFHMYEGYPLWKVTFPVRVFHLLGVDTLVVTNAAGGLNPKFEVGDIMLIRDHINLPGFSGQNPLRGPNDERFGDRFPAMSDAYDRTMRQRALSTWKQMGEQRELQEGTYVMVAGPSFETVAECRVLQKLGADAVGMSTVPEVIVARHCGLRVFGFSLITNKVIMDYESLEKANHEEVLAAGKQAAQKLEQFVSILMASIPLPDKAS
The data set is described as follows: Inhibition of PNP (unknown origin) expressed in Escherichia coli.

The nature of data set [14]: Plasma protein binding in rhesus monkey. It is filed as ADME, cell-free. As to conditions: Macaca mulatta.
Data set [15] is described as follows: Half life in human. It is filed as ADME.
Data set [16] can be described thus: Half life in dog at 1 mg/kg. In kind it is ADME, organism-based, Canis lupus familiaris. As to conditions: in vivo.
A short description of data set [17]: Half life in rhesus monkey at 1 mg/kg, iv. As to conditions: in vivo. In kind it is ADME, organism-based, Macaca mulatta.
The nature of data set [18]: Half life in Sprague-Dawley rat at 1 mg/kg. As to conditions: in vivo. In kind it is ADME, organism-based.
The target of data set [19] is GABA-A receptor; anion channel. Briefly: In vivo receptor occupancy at GABAA receptor in po dosed Sprague-Dawley rat assessed as plasma concentration causing 50% reduction at 0.39 mg/kg measured after 48 hrs by LC/MS method. In kind it is functional, organism-based.
The test system of a further data set is MDA-MB-231. The data set is described as follows: Cytotoxicity against human MDA-MB-231 cells assessed as reduction in cell viability at 100 uM by MTT assay. In kind it is functional, cell-based. For orientation: Formazan colour is commonly taken as a measure of viable cells.
Data set [20] relates to A549. The data set is described as follows: Cytotoxicity against human A549 cells assessed as reduction in cell viability at 100 uM by MTT assay. It is filed as functional, cell-based.
Data set [21] in a line: Oral bioavailability in rhesus monkey at 21 mg/kg. It is filed as ADME, organism-based, Macaca mulatta. As to conditions: in vivo.

T3 sequence (P27487 whole entry): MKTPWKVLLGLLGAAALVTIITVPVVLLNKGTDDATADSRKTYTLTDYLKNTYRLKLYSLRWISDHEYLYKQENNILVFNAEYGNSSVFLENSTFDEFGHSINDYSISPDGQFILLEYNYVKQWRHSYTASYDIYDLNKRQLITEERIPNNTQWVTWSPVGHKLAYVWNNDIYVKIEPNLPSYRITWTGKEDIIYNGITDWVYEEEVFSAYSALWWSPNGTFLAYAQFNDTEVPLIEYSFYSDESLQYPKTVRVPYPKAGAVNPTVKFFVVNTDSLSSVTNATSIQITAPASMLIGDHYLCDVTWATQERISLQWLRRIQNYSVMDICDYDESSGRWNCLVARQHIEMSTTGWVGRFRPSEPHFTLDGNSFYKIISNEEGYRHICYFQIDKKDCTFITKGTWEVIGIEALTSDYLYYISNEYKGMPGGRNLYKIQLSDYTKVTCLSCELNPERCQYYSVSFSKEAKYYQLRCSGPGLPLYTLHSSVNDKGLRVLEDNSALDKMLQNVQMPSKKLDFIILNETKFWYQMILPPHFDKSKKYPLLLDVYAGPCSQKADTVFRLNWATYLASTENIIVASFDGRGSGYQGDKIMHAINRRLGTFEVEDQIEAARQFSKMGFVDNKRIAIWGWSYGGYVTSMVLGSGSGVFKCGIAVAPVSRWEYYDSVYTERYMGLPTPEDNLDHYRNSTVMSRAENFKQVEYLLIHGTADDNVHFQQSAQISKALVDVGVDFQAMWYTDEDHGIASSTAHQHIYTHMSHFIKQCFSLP

`CCSc1nc(-c2ccc(C)cc2)n2nc(C)cc2n1` showed a pIC50 in [1] of 4.61.

Molecule `CCOc1ccc(S(=O)(=O)N[C@@H](C)CO)cc1-c1nnc2c(n1)c(C)nn2C` gave a pIC50 in data set [2] of 7.43.

In turn, `O=c1cc2nc(-c3ccccc3)nc(SCCc3ccccc3)n2[nH]1` showed a pIC50 in the data set with A549 [3] of 4.28.

Consider `Cc1nnc2n(NC(=S)NC3C4CC5CC(C4)CC3C5)c(C)nnc1-2` (centres undefined), for which the pIC50 in the data set on Entamoeba histolytica was 6.27.

On to `CCOc1ccc(S(=O)(=O)NCCN)cc1-c1nnc2c(n1)c(C)nn2C`, for which the residual activity in data set [4] was found to be 96.3%. This molecule also yielded an inhibition in [5] of 3.7%.

`N#Cc1cnn2c(=O)c([N+](=O)[O-])n[nH]c12`: the pIC50 on Dipeptidyl peptidase 4 [6] was 4.21.

On to `Cc1ccc(Nc2nc(N)nc3cc(-c4ccccc4)nn23)cc1`, for which the pIC50 in data set [7] is 5.12.

On to `CCOC(=O)c1cnn2c(=O)c(C(=O)NC(C)(C)C)n[nH]c12`, for which the pIC50 on Dipeptidyl peptidase 4 [8] was 4.32.

The molecule `CCOc1ccc(S(=O)(=O)N[C@H](C)CO)cc1-c1nnc2c(n1)c(C)nn2C` showed a negative logarithm of the IC50 (pIC50) at Tyrosinase of 4.51.

Take `CN(C)CCCNc1nc(N)nc2cc(-c3ccccc3)nn12`: in data set [7], the pIC50 is 4.28.

`CCOC(=O)c1n[nH]c2c(C(=O)OCC)cnn2c1=O`: the pIC50 against Dipeptidyl peptidase 4 [8] is 4.27.

In turn, `CCOc1ccc(S(=O)(=O)NC[C@@H](C)O)cc1-c1nnc2c(n1)c(C)nn2C` gave a pIC50 in data set [2] of 7.36.

On to `Nc1nc(Nc2ccc(F)cc2)n2nc(-c3ccccc3)cc2n1`, for which the pIC50 is 4.29 in data set [7] and 4.74 in [9].

The molecule `CCOc1ccc(S(=O)(=O)N[C@H](CO)CC(C)C)cc1-c1nnc2c(n1)c(C)nn2C` had a pIC50 in data set [2] of 7.38.

As for `Cc1nnc2n(NC(=S)NC3CCCCC3)c(C)nnc1-2`, in the data set on Entamoeba histolytica, the pIC50 is 6.09.

For the molecule `O=C(NCCc1ccccc1)c1cnn2c(-c3ccc(Cl)cc3)nc(NCCc3ccccc3)nc12`, the inhibition of growth at 100 µM in data set [10] is 33.3%. In addition, the inhibition in data set [11] worked out at 82%. This molecule also had a pIC50 in data set [12] of 5.68.

In turn, `NC(N)=S` [THIOUREA] had a pIC50 in data set [2] of 4.68.

In the case of `N/C(=N\O)c1cnn2c(=O)c([N+](=O)[O-])n[nH]c12`, the pIC50 against Dipeptidyl peptidase 4 [6] was 4.20.

In the case of `Cc1nnc2n(NC(=S)NC3CCCCCCC3)c(C)nnc1-2`, the pIC50 in the data set on Entamoeba histolytica was 6.09.

`CCOC(=O)c1cnn2c(=O)c([N+](=O)[O-])n[nH]c12` showed a pIC50 against Dipeptidyl peptidase 4 [6] of 3.21.

Regarding `CCOC(=O)c1cnn2c(-c3ccc(Cl)cc3)nc(NCc3ccccc3)nc12`, in data set [10], the inhibition of growth at 100 µM amounted to 41.8%. Moreover, the inhibition in data set [11] came to 82.4%. In addition, the negative-log IC50 (pIC50) in data set [12] was 5.73.

Consider `CSC1=NNC2NN=C(C)C2=N1` (centres undefined), for which the pIC50 in data set [13] was 4.40.

`Cc1cc(-c2nncc3c(C(C)(C)C)c(OCc4ncnn4C)nn23)no1` had a half-maximal effective concentration (EC50) in [14] of 0.021 µg/mL (≈ 0.057 µM). Besides, the half-life in data set [15] is 210 min; in [16] it was 30 min; in data set [17], 18 min; in [18], 30 min. The pEC50 in [19] is 7.39.

For `O=c1[nH]c(=O)n([C@H]2C[C@H](O)[C@@H](CO)O2)cc1F` [FLOXURIDINE], the pIC50 in the data set on MDA-MB-231 is 4.42; in the data set on A549 [20] it was 5.24.

On to `COCC(COC)Nc1nc(C)nc2c(-c3ccc(Cl)cc3Cl)c(C)nn12`, for which the bioavailability in data set [21] was 50%.

For `Cc1ncc([N+](=O)[O-])n1CCO` [METRONIDAZOLE], in the data set on Entamoeba histolytica, the pIC50 is 5.74.

`CCOc1ccc(S(=O)(=O)N[C@@H](CO)CC(C)C)cc1-c1nnc2c(n1)c(C)nn2C` showed a pIC50 against Tyrosinase of 4.55.
